# Measured values published in BindingDB's records for patent US11584735 (Kalvista Pharmaceuticals, 2023).
# Target: Serine protease 1 (Homo sapiens, UniProt P07477)
# Test: Enzymatic Activity Assay
# Experimental: Human serine protease enzymes plasmin, thrombin and trypsin were assayed for enzymatic activity using an appropriate fluorogenic substrate. Protease activity was measured by monitoring the accumulation of liberated fluorescence from the substrate over 5 minutes. The linear rate of fluorescence increase per minute was expressed as percentage (%) activity. The Km for the cleavage of each substrate was determined by standard transformation of the Michaelis-Menten equation.
# Chain of Serine protease 1 (P07477 whole entry): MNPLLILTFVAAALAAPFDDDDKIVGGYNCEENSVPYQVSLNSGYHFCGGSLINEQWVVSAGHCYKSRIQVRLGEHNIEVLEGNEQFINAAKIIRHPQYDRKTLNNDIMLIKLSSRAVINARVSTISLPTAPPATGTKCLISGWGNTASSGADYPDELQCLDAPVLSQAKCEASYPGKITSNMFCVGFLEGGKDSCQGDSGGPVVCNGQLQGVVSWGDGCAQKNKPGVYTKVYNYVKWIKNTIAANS
structure (smiles),measurement,value
"COCc1nn(Cc2ccc(Cn3cc(F)ccc3=O)cc2)cc1C(=O)NCc1nccc(OC)c1F [US11584735, Compound of Formula A]",IC50,> 40 µM
